Common to all, as to assay type: in vivo
Series [1] deals with Cabbage Looper (Trichoplusia ni, TRIPNI) ("CL"). Nature of the series: Bioassays on Cabbage Looper (CL), 128-well diet tray assay. The note with it: for mortality at 50 µg/cm2: Trichoplusia ni, 168 h, read-out: CL % Control (or Mortality) rating. In a few lines:
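Second instar larvae (one to five per well) placed on artificial diet treated with 50 μg/cm^2 compound in acetone-water, eight wells per compound. Held at 25° C, 14:10 light-dark for five to seven days; percent mortality averaged across wells.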

Series [2] deals with Beet Armyworm (Spodoptera exigua, LAPHEG) ("BAW"). Nature of the series: Bioassays on Beet Armyworm (BAW), 128-well diet tray assay. The note with it: second instar BAW larvae, 50 μg/cm^2 on artificial diet, five to seven days, 25° C.; for mortality at 50 µg/cm2: Spodoptera exigua, 168 h, read-out: BAW % Control (or Mortality) rating. In a few lines: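 Second-instar larvae, one to five per well, were placed on artificial diet surface-treated with 50 μg/cm^2 compound in 90:10 acetone-water and dried, eight wells per compound. Trays were held at 25° C, 14:10 light-dark, for five to seven days. Percent mortality per well was averaged over the eight wells.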

For series [3], the system named is Yellow Fever Mosquito (Aedes aegypti, AEDSAE) ("YFM"). The note with it: about 1 day-old larvae, 4000 ppm master solution diluted, 3 days, room temperature. In a few lines:
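Compounds from 4000 ppm DMSO master plates, diluted in 90:10 water:acetone, dispensed into 96-well plates, six replicates. About 1-day-old larvae added in liver-powder water. Wells covered, held 3 days at room temperature, then scored for mortality.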

In general, mortality refers to the percentage killed.

Turning to `Cc1ccccc1-c1cc(F)cc(C(=O)Nc2ccc(-c3ncn(-c4ccc(OC(F)(F)C(F)(F)F)cc4)n3)cc2)c1` [F42, 5-Fluoro-2′-methyl-N-(4-(1-(4-(perfluoroethoxy)phenyl)-1H-1,2,4-triazol-3-yl)phenyl)-[1,1′-biphenyl]-3-carboxamide], the mortality at 50 µg/cm2 in series [1] is 50 to 100%; in series [2], 0%. For the same compound, the “YFM % Control (or Mortality) rating” value in series [3] is recorded as “D (No activity noticed in this bioassay)”.

Turning to `COc1ccccc1-c1cccc(C(=O)Nc2ccc(-c3ncn(-c4ccc(OC(C)C)cc4)n3)cc2)c1` [F5, N-(4-(1-(4-isopropoxyphenyl)-1H-1,2,4-triazol-3-yl)phenyl)-2′-methoxy-[1,1′-biphenyl]-3-carboxamide], the mortality at 50 µg/cm2 in series [1] and in series [2] was 50 to 100% throughout. The “YFM % Control (or Mortality) rating” value in series [3] is reported as “B (More than 0-Less than 80)”.

For “6-Methoxy-N-(4-(1-(4-(trifluoromethoxy)phenyl)-1H-1,2,4-triazol-3-yl)phenethyl)-[1,1′-biphenyl]-3-carboxamide [F56]”, the “CL % Control (or Mortality) rating” value in series [1] (second instar CL larvae, 50 μg/cm^2 on artificial diet, five to seven days, 25° C.) is “A (50-100)”. Further, the “BAW % Control (or Mortality) rating” value in series [2] is given as “A (50-100)”. Moreover, the “YFM % Control (or Mortality) rating” value in series [3] is “A (80-100)”.

Turning to `Cc1ccccc1-c1cc(F)cc(C(=O)N(C)c2ccc(-c3ncn(-c4ccc(OC(F)(F)C(F)(F)F)cc4)n3)cc2)c1` [F29, 5-fluoro-N,2′-dimethyl-N-(4-(1-(4-(perfluoroethoxy)phenyl)-1H-1,2,4-triazol-3-yl)phenyl)-[1,1′-biphenyl]-3-carboxamide], the mortality at 50 µg/cm2 in series [1] is 0%; in series [2], 50 to 100%. The “YFM % Control (or Mortality) rating” value in series [3] is “D (No activity noticed in this bioassay)”.

Turning to `O=C(Nc1ccc(-c2ncn(-c3ccc(C(F)(F)F)cc3)n2)cc1)c1ccc(F)c(-c2ccccc2)c1` [F62, 6-Fluoro-N-(4-(1-(4-(trifluoromethyl)phenyl)-1H-1,2,4-triazol-3-yl)phenyl)-[1,1′-biphenyl]-3-carboxamide], the mortality at 50 µg/cm2 in series [1] and in series [2] was 50 to 100% throughout. In addition, the “YFM % Control (or Mortality) rating” value in series [3] is reported as “B (More than 0-Less than 80)”.

As for `COc1ccc(C(=O)Nc2ccc(-c3ncn(-c4ccc(OC(F)(F)C(F)(F)F)cc4)n3)cc2)cc1-c1ccccc1` [F13, 6-Methoxy-N-(4-(1-(4-(perfluoroethoxy)phenyl)-1H-1,2,4-triazol-3-yl)phenyl)-[1,1′-biphenyl]-3-carboxamide], the mortality at 50 µg/cm2 in series [1] is 50 to 100%; in series [2] it was 0%. Moreover, in series [3], the “YFM % Control (or Mortality) rating” value is recorded as “D (No activity noticed in this bioassay)”.

For the compound `O=C(Nc1ccc(-c2ncn(-c3ccc(OC(F)(F)F)cc3)n2)cc1)c1cccc(-c2ccccc2OC(F)(F)F)c1` [F1, 2′-(Trifluoromethoxy)-N-(4-(1-(4-(trifluoromethoxy)phenyl)-1H-1,2,4-triazol-3-yl)phenyl)-[1,1′-biphenyl]-3-carboxamide], the figures for the mortality at 50 µg/cm2 in series [1] and in series [2] were 50 to 100% and 0%, respectively. The “YFM % Control (or Mortality) rating” value in series [3] is “D (No activity noticed in this bioassay)”.

Turning to `O=C(Nc1ccc(-c2ncn(-c3ccc(OC(F)(F)C(F)(F)F)cc3)n2)cc1)c1cc(Cl)cc(-c2ccccc2)c1` [F6, 5-Chloro-N-(4-(1-(4-(perfluoroethoxy)phenyl)-1H-1,2,4-triazol-3-yl)phenyl)-[1,1′-biphenyl]-3-carboxamide], the mortality at 50 µg/cm2 in series [1] and in series [2] was 0% in each case. Besides, the “YFM % Control (or Mortality) rating” value in series [3] is on record as “D (No activity noticed in this bioassay)”.

In the case of `CCN(C(=O)c1ccc(F)c(-c2ccccc2OC)c1)c1ccc(-c2ncn(-c3ccc(OC(F)(F)F)cc3)n2)cc1` [F64, N-Ethyl-6-fluoro-2′-methoxy-N-(4-(1-(4-(trifluoromethoxy)phenyl)-1H-1,2,4-triazol-3-yl)phenyl)-[1,1′-biphenyl]-3-carboxamide], the mortality at 50 µg/cm2 in series [1] and in series [2] was 50 to 100% each time. The “YFM % Control (or Mortality) rating” value in series [3] is recorded as “D (No activity noticed in this bioassay)”.

With `COc1ccccc1-c1cccc(C(=O)Nc2ccc(-c3ncn(-c4ccc(OC(F)(F)F)cc4)n3)cc2)c1` [F22, 2′-Methoxy-N-(4-(1-(4-(trifluoromethoxy)phenyl)-1H-1,2,4-triazol-3-yl)phenyl)-[1,1′-biphenyl]-3-carboxamide], the mortality at 50 µg/cm2 in series [1] and in series [2] was 50 to 100% in each case. Besides, in series [3], the “YFM % Control (or Mortality) rating” value is “A (80-100)”.

Regarding `O=C(Nc1ccc(-c2ncn(-c3ccc(OC(F)(F)C(F)(F)F)cc3)n2)cc1)c1ccc(F)c(-c2ccccc2)c1` [F40, 6-Fluoro-N-(4-(1-(4-(perfluoroethoxy)phenyl)-1H-1,2,4-triazol-3-yl)phenyl)-[1,1′-biphenyl]-3-carboxamide], the mortality at 50 µg/cm2 in series [1] is 50 to 100%; in series [2], 0%. Further, the “YFM % Control (or Mortality) rating” value in series [3] is listed as “D (No activity noticed in this bioassay)”.

As to `COc1ccccc1-c1cc(C(=O)N(C(C)=O)c2ccc(-c3ncn(-c4ccc(OC(F)(F)F)cc4)n3)cc2)ccc1F` [F67, N-acetyl-6-fluoro-2′-methoxy-N-(4-(1-(4-(trifluoromethoxy)phenyl)-1H-1,2,4-triazol-3-yl)phenyl)-[1,1′-biphenyl]-3-carboxamide], the mortality at 50 µg/cm2 in series [1] and in series [2] was 50 to 100% in each case. The “YFM % Control (or Mortality) rating” value in series [3] is on record as “A (80-100)”.

For `O=C(Nc1ccc(-c2ncn(-c3ccc(OC(F)(F)C(F)(F)F)cc3)n2)cc1)c1cccc(-c2ccccc2OC(F)(F)F)c1` [F36, N-(4-(1-(4-(Perfluoroethoxy)phenyl)-1H-1,2,4-triazol-3-yl)phenyl)-2′-(trifluoromethoxy)-[1,1′-biphenyl]-3-carboxamide], the figures for the mortality at 50 µg/cm2 in series [1] and in series [2] were 50 to 100% and 0%, respectively. In series [3], the “YFM % Control (or Mortality) rating” value is listed as “D (No activity noticed in this bioassay)”.

Take `CN(C)c1ccccc1-c1cccc(C(=O)NCCc2ccc(-c3ncn(-c4ccc(OC(F)(F)F)cc4)n3)cc2)c1` [F52, 2′-(Dimethylamino)-N-(4-(1-(4-(trifluoromethoxy)phenyl)-1H-1,2,4-triazol-3-yl)phenethyl)-[1,1′-biphenyl]-3-carboxamide]: the mortality at 50 µg/cm2 in series [1] and in series [2] was 50 to 100% each time. In addition, the “YFM % Control (or Mortality) rating” value in series [3] is on record as “A (80-100)”.

On to `COc1ccccc1-c1cc(C(=O)N(CC2CC2)c2ccc(-c3ncn(-c4ccc(OC(F)(F)F)cc4)n3)cc2)ccc1F` [F66, N-(cyclopropylmethyl)-6-fluoro-2′-methoxy-N-(4-(1-(4-(trifluoromethoxy)phenyl)-1H-1,2,4-triazol-3-yl)phenyl)-[1,1′-biphenyl]-3-carboxamide], for which the mortality at 50 µg/cm2 in series [1] and in series [2] was 50 to 100% each time. Moreover, in series [3], the “YFM % Control (or Mortality) rating” value is recorded as “D (No activity noticed in this bioassay)”.

For the compound `O=C(Nc1ccc(-c2ncn(-c3ccc(OC(F)(F)F)cc3)n2)cc1)c1cccc(-c2ccccc2Cl)c1` [F30, 2′-Chloro-N-(4-(1-(4-(trifluoromethoxy)phenyl)-1H-1,2,4-triazol-3-yl)phenyl)-[1,1′-biphenyl]-3-carboxamide], the mortality at 50 µg/cm2 in series [1] and in series [2] was 50 to 100% in each case. Besides, the “YFM % Control (or Mortality) rating” value in series [3] was “D (No activity noticed in this bioassay)”.

The values above are taken from patent US9550739B2, “Molecules having certain pesticidal utilities, and intermediates, compositions, and processes related thereto” (priority 2014, dated 2017).
